The values below come from patent US20150072395A1, “RECOMBINANT MICROORGANISMS AND METHODS OF USE THEREOF” (priority 2013, published 2015).

In assay [1] the test system is E. coli TOP10 harbouring pMTL85151-pheS*. The assay can be described thus: Testing pheS* in E. coli (plating on LB with chloramphenicol and DL-4-chlorophenylalanine). In kind it is cell-based. The procedure:
To test the ability of the counter selection marker to work in E. coli, the plasmid pMTL85151-pheS* was transformed into TOP10 and grown under chloramphenicol selection only. Once the culture had reached an OD of 0.5, representing an exponential growth phase, 100 ul was plated onto LB plates containing chloramphenicol and DL-4-chlorophenylalanine as well as chloramphenicol alone as a control, in triplicate, […]

For assay [2], the system named is C. autoethanogenum DSM23693 harbouring pMTL85151-pheS*. The class given is cell-based, Clostridium autoethanogenum. The following applies: summary statement. The protocol:
(§1) The three independent transformants of C. atoethanogenum DSM23693 harbouring pMTL85151-pheS*, as well as C. autoethanogenum DSM23693 harbouring pMTL85151, were grown in liquid PECT media supplemented with thiamphenicol and grown at 37° C. under CO only conditions. After 24 hours, 100 ul of each of the three independent, as well as the control pMTL85151, were plated into PETC-MES agar supplemented with either thiamphenicol alone, or thiamphenicol and DL-4-chlorophenylalanine and incubated for 48 hours.

Assay [3] relates to E. coli Top10 harbouring the empty vector pMTL85151. The assay can be described thus: Toxicity testing of DL-4-chlorophenylalanine, E. coli with empty vector. The class given is cell-based. The following applies: plates and liquid media, 24 hours. The procedure: (§2) E. coli Top10 and C. autoethanogenum DSM23693 harbouring the empty vector pMTL85151 were grown initially in the presence of DL-4-chlorophenylanine on plates and in liquid media to ascertain if the counter-selection marker has any effect on growth of the organisms.

For assay [4], the system named is C. autoethanogenum DSM23693 harbouring pMTL85151. The assay can be described thus: Toxicity/sensitivity testing of DL-4-chlorophenylalanine, C. autoethanogenum with empty vector. In kind it is cell-based, Clostridium autoethanogenum. The procedure: as §2, §1
A further assay relates to LZ-pMTL83155. The assay can be described thus: Sensitivity of C. autoethanogenum transformants to ganciclovir (plating on PETC agar), empty-vector strain. In kind it is cell-based, Clostridium autoethanogenum. The protocol: The pMTL83155, pMTL83155-Hsv-tk and pMTL85155-PheS plasmids were introduced into C. autoethanogenum DSM23693 (a derivate of DSM10061) as described in WO2012053905. Outgrowth was performed in PETC broth and spread on PETC-agar media supplemented with 15 μg/ml thiamphenicol (Sigma) and 10 μg/ml trimethoprim (Sigma). Colonies were observed after 3 days of incubation at 37° C. in pressurized gas jars with 20 psi of a gas mix of 48% […] 2% H2, 20% CO2, 30% N2. Streaks of single colonies were made on PETC-agar media containing 15 μg/mlthiamphenicol.
(§3) The sensitivity of LZ-pMTL83155 and LZ-pMTL83155-hsv-tk to ganciclovir was tested by plating them on PETC agar media containing 20 nM ganciclovir only and PETC agar media containing 20 nM ganciclovir and 15 μg/ml thiamphenicol. […] The presence of Hvs-tk gene confers toxicity to ganciclovir.

The subject of the next assay is LZ-pMTL83155-hsv-tk. In kind it is cell-based, Clostridium autoethanogenum. The protocol: The pMTL83155, pMTL83155-Hsv-tk and pMTL85155-PheS plasmids were introduced into C. autoethanogenum DSM23693 (a derivate of DSM10061) as described in WO2012053905. Outgrowth was performed in PETC broth and spread on PETC-agar media supplemented with 15 μg/ml thiamphenicol (Sigma) and 10 μg/ml trimethoprim (Sigma). […] Streaks of single colonies were made on PETC-agar media containing 15 μg/mlthiamphenicol.
as §3

With `NC(Cc1ccc(Cl)cc1)C(=O)O` (racemic) [DL-4-chlorophenylalanine], the “Growth on plates with chloramphenicol and DL-4-chlorophenylalanine” value in assay [1] (24 hours at 37° C., compared with chloramphenicol alone) is given as “a light shading of small colonies”; in assay [1] (after 36 hours), “outgrown to the same level as the chloramphenicol alone plates”. In addition, the “Counterselection in combination with PheS*” value in assay [2] was “effective for counterselection in C. autoethanogenum”. Further, the Effect on growth entry in assay [3] was “did not impede growth of either organism in liquid media or on plates”; in assay [4] (plates and liquid media, 48 hours), “did not impede growth of either organism in liquid media or on plates”. Also, in assay [4] (DL-4-Chlorophenlanine 0.20%, CSM PheS, control strain without CSM), the “Sensitivity to prodrug: growth on plate, column LZ-pMTL83155” value is “Lawn”. Also, the “Growth on double selection plates (thiamphenicol and DL-4-chlorophenylalanine)” value in assay [4] (PETC-MES agar, 48 hours) is on record as “the same results as the thiamphenicol only plate”.

As to `Nc1nc(O)c2ncn(COC(CO)CO)c2n1` [Ganciclovir, ganciclovir], the “Colonies on ganciclovir plates” value in the assay on LZ-pMTL83155 (20 nM ganciclovir, with or without 15 μg/ml thiamphenicol) is “observed only with LZ-pMTL83155 transformants”. Further, in the assay on LZ-pMTL83155 (Ganciclovir 20 nM, CSM Hsv-tk), the “Sensitivity to prodrug: growth on plate, LZ-pMTL83155” value is on record as “Lawn”. Besides, in the assay on LZ-pMTL83155-hsv-tk (Ganciclovir 20 nM, CSM Hsv-tk, PETC agar), the “Sensitivity to prodrug: growth on plate, LZ-pMTL83155-hsv-tk” value is listed as 0-5 ^. For the same compound, the “Counterselection in combination with HSV-Tk” value with LZ-pMTL83155-hsv-tk (summary statement) is reported as “effective for counterselection in C. autoethanogenum”.
